Source: US20250228855A1, “PYRAZINAMIDE COMPOUNDS” (The General Hospital Corporation, priority 2022, published 2025)
Where a name gives a salt, the structure may show the parent alone. Read-outs that look alike come from different tables or passages of the source.

Key:
[1] = tested on: luciferase-expressing P. berghei ANKA sporozoites; test: P. berghei liver stage assay in HuH7 cells; type: cell-based; conditions: Plasmodium berghei, Huh-7; HuH7 hepatocytes, ~44 hpi, luminescence
Procedure: Halofuginone and derivatives are active against liver stage Plasmodium parasites. NCP26 and MAT436 were evaluated in a tissue culture-based P. berghei liver stage model. Specifically, various test compounds were added in dose-response to human hepatocytes (HuH7) followed by infection with luciferase-expressing P. berghei ANKA sporozoites, which enabled quantification of parasite load by luminescence. In parallel, host cell viability was also assessed to provide an estimate of cellular selectivity.
P. berghei Liver Stage and HuH7 Host Hepatocyte Growth Assay: HuH7 cells (Sigma) were cultured in DMEM+L-Glutamine (Gibco) supplemented with 10% (v/v) heat-inactivated FBS (Sigma) and 1% (v/v) antibiotic/antimycotic (Sigma). Hepatocyte cultures were maintained in a standard tissue culture incubator at 37° C. Anopheles mosquitoes infected with luciferase-expressing P. berghei ANKA sporozoites were obtained from the Sporocore at the University of Georgia. […] At ˜44 hpi, HuH7 cell viability and P. berghei parasite load was assessed using CellTiter-Fluor (Promega) and Bright-Glo (Promega), respectively, using an Envision plate reader. Relative fluorescence and luminescence signal intensities were normalized to the negative control, 1% DMSO. EC50 values were determined using GraphPad Prism through fitting data to a dose response curve. […]

[2] = tested on: halofuginone-induced (HFG-induced) P. falciparum; test: P. falciparum asexual blood stage growth assay, halofuginone-induced parasites; conditions: Plasmodium falciparum
Procedure: (§1) Asexual blood stage (ABS) P. falciparum parasites were treated with test compounds at varying concentrations for 72 h, followed by quantification of parasite growth by SYBR Green staining.
(§2) P. falciparum Asexual Blood Stage Growth Assay: This assay was performed as previously described.

PfcProRS = PfcProRS (Plasmodium falciparum, UniProt Q8I5R7); test: TR-FRET ligand displacement assay with tracer MAT379, PfcProRS; type: binding
P. falciparum Dd2-2D4 = test: P. falciparum asexual blood stage growth assay, wild-type Dd2-2D4; conditions: Plasmodium falciparum; for IC50: DD2, read-out: IC50 for Dd2-2D4
Procedure: as §1, §2

[3] = Storage stability of MAT436·HBr (LC-MS); type: physicochemical
HsProRS = target: T1, HsProRS (Homo sapiens, UniProt P07814); test: TR-FRET ligand displacement assay with tracer MAT379, HsProRS; type: binding
T1 sequence (P07814 1007-1512 limits assumed): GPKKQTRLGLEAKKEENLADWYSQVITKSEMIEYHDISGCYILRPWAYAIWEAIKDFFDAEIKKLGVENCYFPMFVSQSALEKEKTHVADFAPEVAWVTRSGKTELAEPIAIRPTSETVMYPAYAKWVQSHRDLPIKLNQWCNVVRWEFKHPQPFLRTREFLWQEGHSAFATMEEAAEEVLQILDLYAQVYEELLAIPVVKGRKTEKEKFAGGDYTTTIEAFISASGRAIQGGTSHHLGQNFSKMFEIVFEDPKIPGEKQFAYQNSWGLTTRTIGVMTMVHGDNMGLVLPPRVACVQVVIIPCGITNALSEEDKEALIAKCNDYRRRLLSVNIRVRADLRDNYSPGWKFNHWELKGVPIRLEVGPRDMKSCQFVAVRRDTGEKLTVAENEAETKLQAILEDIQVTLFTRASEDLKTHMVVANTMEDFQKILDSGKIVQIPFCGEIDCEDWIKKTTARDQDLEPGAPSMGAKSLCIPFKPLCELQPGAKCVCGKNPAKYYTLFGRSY

[4] = DD2, 72 h, read-out: Dd2 (EC50 [nM]) Halofuginone-induced
[5] = PfcProRS (KD [nM]) +proline, 100 μM Pro
[6] = DD2, 72 h, read-out: Dd2 (EC50 [nM]) wt
[7] = DD2, read-out: EC50 against Dd2-2D4 wildtype parasites
[8] = no proline, no ATP, read-out: HsProRS (KD [nM]) −
[9] = read-out: HsProRS (KD [nM]) +proline, 100 μM Pro
[10] = no proline, no ATP, read-out: PfcProRS (KD [nM]) −
[11] = read-out: EC50 in halofuginone-induced parasites
[12] = KD for HsProRS in presence of 100 μM proline, 100 μM proline
[13] = absence of proline, read-out: KD for PfcProRS
[14] = absence of proline, read-out: KD for HsProRS
[15] = read-out: PfcProRS (KD [nM]) +proline, 100 μM Pro

Sequence of PfcProRS (Q8I5R7 whole entry): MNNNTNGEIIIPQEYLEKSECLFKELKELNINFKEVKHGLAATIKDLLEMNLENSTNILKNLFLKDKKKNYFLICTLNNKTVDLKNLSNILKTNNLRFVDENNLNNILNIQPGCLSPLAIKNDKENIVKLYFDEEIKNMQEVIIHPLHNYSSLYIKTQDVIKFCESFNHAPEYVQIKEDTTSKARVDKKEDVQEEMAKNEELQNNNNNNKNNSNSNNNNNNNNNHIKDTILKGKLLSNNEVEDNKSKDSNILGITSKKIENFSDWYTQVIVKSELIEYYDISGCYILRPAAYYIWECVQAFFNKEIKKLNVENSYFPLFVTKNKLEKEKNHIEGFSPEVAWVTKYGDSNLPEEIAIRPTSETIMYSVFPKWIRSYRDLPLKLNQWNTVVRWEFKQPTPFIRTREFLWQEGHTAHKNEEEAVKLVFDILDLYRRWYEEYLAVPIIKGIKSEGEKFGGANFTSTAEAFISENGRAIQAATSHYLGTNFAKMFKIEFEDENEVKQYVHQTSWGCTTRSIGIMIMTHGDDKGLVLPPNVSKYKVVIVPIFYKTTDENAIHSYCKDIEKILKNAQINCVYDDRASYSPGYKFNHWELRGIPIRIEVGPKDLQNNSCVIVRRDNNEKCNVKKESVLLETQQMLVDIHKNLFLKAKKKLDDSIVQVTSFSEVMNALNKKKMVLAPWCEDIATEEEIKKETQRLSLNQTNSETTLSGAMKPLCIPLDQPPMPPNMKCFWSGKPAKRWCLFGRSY

| Structure (SMILES) | EC50 [2, 4] [nM] | Kd (PfcProRS; [5]) [nM] | EC50 (P. falciparum Dd2-2D4; [6]) [nM] | Kd (HsProRS; [8]) [nM] | Kd (HsProRS; [9]) [nM] | Kd (PfcProRS; [10]) [nM] | Kd (PfcProRS; [13]) [nM] | Kd (HsProRS; [14]) [nM] | Kd (HsProRS) [nM] | other results |
| --- | --- | --- | --- | --- | --- | --- | --- | --- | --- | --- |
| O=C(C[C@H]1NCCC[C@@H]1OC(=O)NS(=O)(=O)N1CCN(C(=O)Nc2nccnc2C(=O)NC2Cc3ccccc3C2)CC1)Cn1cnc2cc(Br)c(Cl)cc2c1=O (relative stereo) [MAT436 (34), trans-2-(3-(7-bromo-6-chloro-4-oxoquinazolin-3(4H)-yl)-2-oxopropyl)piperidin-3-yl ((4-((3-((2,3-dihydro-1H-inden-2-yl)carbamoyl)pyrazin-2-yl)carbamoyl)piperazin-1-yl)sulfonyl)carbamate hydrobromide] | 251 | 0.722 | 6.76 |  |  |  |  |  |  | EC50 [1]: 186 nM; fold affinity for PfcProRS compared to halofuginone in the absence of ATP (PfcProRS; absence of ATP): > 10^4 fold; Kd (PfcProRS; absence of ATP, read-out: KD for PfcProRS): 0.375 nM; EC50 (P. falciparum Dd2-2D4; [7]): 6.8 nM; hydrolyzed at carbamate carbonyl ([3]; 10 mM stock solution in DMSO, 8 days at room temperature, LC-MS): ~36%; stability of neat compound ([3]; neat, 4° C.): stable indefinitely |
| CC(C)(C)OC(=O)NCCCCCC(=O)NCC1CCN(C(=O)Nc2nccnc2C(=O)NC2Cc3ccccc3C2)CC1 [Compound 43, tert-butyl (6-(((1-((3-((2,3-dihydro-1H-inden-2-yl)carbamoyl)pyrazin-2-yl)carbamoyl)piperidin-4-yl)methyl)amino)-6-oxohexyl)carbamate] | 5090 | 320 | 3330 | 611 | 2280 | 375 |  |  |  |  |
| NCCCCCC(=O)NCC1CCN(C(=O)Nc2nccnc2C(=O)NC2Cc3ccccc3C2)CC1 [Compound 44, 3-(4-((6-aminohexanamido)methyl)piperidine-1-carboxamido)-N-(2,3-dihydro-1H-inden-2-yl)pyrazine-2-carboxamide dihydrochloride] | 8910 | 270 | > 10000 |  | 330 | 321 |  |  |  | Kd (HsProRS; read-out: HsProRS (KD [nM]) −): 1570 nM |
| O=C(NS(=O)(=O)N1CCN(C(=O)Nc2nccnc2C(=O)NC2Cc3ccccc3C2)CC1)OC[C@@H]1CCCN1 [MAT457, (S)-pyrrolidin-2-ylmethyl ((4-((3-((2,3-dihydro-1H-inden-2-yl)carbamoyl)pyrazin-2-yl)carbamoyl)piperazin-1-yl)sulfonyl)carbamate hydrochloride] | 6570 | 118 | 968 |  |  |  | 152 |  |  | EC50 [2, 11]: > 10000 nM; Kd (HsProRS; KD for HsProRS): 9.71 nM; Kd (HsProRS; [12]): 16.3 nM; EC50 (P. falciparum Dd2-2D4; [7]): 968 nM |
| O=C(NS(=O)(=O)N1CCN(C(=O)Nc2nccnc2C(=O)NC2Cc3ccccc3C2)CC1)OC[C@H]1CCCN1 [MAT459, (R)-pyrrolidin-2-ylmethyl ((4-((3-((2,3-dihydro-1H-inden-2-yl)carbamoyl)pyrazin-2-yl)carbamoyl)piperazin-1-yl)sulfonyl)carbamate] | 7080 | 552 | 4620 |  |  |  | 736 | 105 |  | EC50 [2, 11]: > 10000 nM; Kd (HsProRS; [12]): 245 nM; EC50 (P. falciparum Dd2-2D4; [7]): 4620 nM |
| O=C(CCCCCNC(=S)Nc1ccccc1)NC1CCN(C(=O)Nc2nccnc2C(=O)NC2Cc3ccccc3C2)CC1 [MAT482] | 5540 |  | 2720 | 516 | 1360 | 78.3 |  |  |  | Kd (PfcProRS; [15]): 61.6 nM |
| Nc1ncnc2c1ncn2[C@@H]1O[C@H](CNS(=O)(=O)NC(=O)OCCn2cnc3ccccc3c2=O)[C@@H](O)[C@H]1O [MAT511, 2-(4-oxoquinazolin-3(4H)-yl)ethyl (N-(((2R,3S,4R,5R)-5-(6-amino-9H-purin-9-yl)-3,4-dihydroxytetrahydrofuran-2-yl)methyl)sulfamoyl)carbamate] | 52.2 | 1810 | 76.5 | > 8720 |  | > 2860 | > 10000 | > 10000 | > 5090 | IC50 (P. falciparum Dd2-2D4): 73.9 nM |
| O=C(NS(=O)(=O)NCC1CCN(C(=O)Nc2nccnc2C(=O)NC2Cc3ccccc3C2)CC1)OCCn1cnc2ccccc2c1=O [MAT514, 2-(4-oxoquinazolin-3(4H)-yl)ethyl (N-((1-((3-((2,3-dihydro-1H-inden-2-yl)carbamoyl)pyrazin-2-yl)carbamoyl)piperidin-4-yl)methyl)sulfamoyl)carbamate] | 7040 | 32.6 | 4560 |  |  |  | 35.2 | 277 | 372 | IC50 (P. falciparum Dd2-2D4): 4560 nM |
| O=C(CCCCCNC(=O)Nc1ccccc1)NC1CCN(C(=O)Nc2nccnc2C(=O)NC2Cc3ccccc3C2)CC1 [MAT515] | 3300 | 46.6 | 381 |  |  |  | 70.4 | 169 | 504 |  |
| O=C(CCCCCNC(=O)Nc1ccccc1)NCC1CCN(C(=O)Nc2nccnc2C(=O)NC2Cc3ccccc3C2)CC1 [MAT516] | 4760 |  | 636 | 402 | 159 | 94.1 |  |  |  | Kd (PfcProRS; [15]): 60.8 nM |
| O=C(CCCCCNC(=S)Nc1ccccc1)NCC1CCN(C(=O)Nc2nccnc2C(=O)NC2Cc3ccccc3C2)CC1 [MAT517] | 6840 |  | 2680 | 865 | 1680 | 95.6 |  |  |  | Kd (PfcProRS; [15]): 80.2 nM |
| O=C(CCCCCNC(=S)NC1CCCCC1)NCC1CCN(C(=O)Nc2nccnc2C(=O)NC2Cc3ccccc3C2)CC1 [MAT518] | 1500 | 288 | 1820 |  |  |  | 372 | 2760 | > 5090 | selectivity for PfcProRS compared to HsProRS (PfcProRS): ~7 fold |
| CC(C)(C)OC(=O)N1CCC[C@@H](OC(=O)NS(=O)(=O)N2CCN(C(=O)Nc3nccnc3C(=O)NC3Cc4ccccc4C3)CC2)[C@@H]1CC(O)Cn1cnc2cc(Br)c(Cl)cc2c1=O (stereo partly drawn) [MAT582, tert-butyl (2S,3R)-2-(3-(7-bromo-6-chloro-4-oxoquinazolin-3(4H)-yl)-2-hydroxypropyl)-3-((((4-((3-((2,3-dihydro-1H-inden-2-yl)carbamoyl)pyrazin-2-yl)carbamoyl)piperazin-1-yl)sulfonyl)carbamoyl)oxy)piperidine-1-carboxylate] | > 10000 | 2740 | 8660 | 265 |  | 2490 |  |  | 8.42 |  |
| O=C(NS(=O)(=O)N1CCN(C(=O)Nc2nccnc2C(=O)NC2Cc3ccccc3C2)CC1)O[C@H]1CCCN[C@@H]1CC(O)Cn1cnc2cc(Br)c(Cl)cc2c1=O (stereo partly drawn) [MAT583, (2R,3S)-2-(3-(7-bromo-6-chloro-4-oxoquinazolin-3(4H)-yl)-2-hydroxypropyl)piperidin-3-yl ((4-((3-((2,3-dihydro-1H-inden-2-yl)carbamoyl)pyrazin-2-yl)carbamoyl)piperazin-1-yl)sulfonyl)carbamate 2,2,2-trifluoroacetate] | 7750 | 19 | 2270 | 687 |  | 187 |  |  | 150 |  |
| O=C(C[C@H]1NCCC[C@@H]1O)Cn1cnc2cc(Br)c(Cl)cc2c1=O [halofuginone(1), halofuginone, reference compound] | 19.2 | > 3000 | 0.519 | 1160 |  | > 3000 |  |  | 2040 | Kd (HsProRS; HsProRS (KD [nM]) +ATP, +ATP): 0.225 nM; Kd (PfcProRS; PfcProRS (KD [nM]) +ATP, 500 μM ATP): 0.503 nM |
